Values quoted from earlier work in US20160128943A1, “CONTROLLED RELEASE CAFFEINE DOSAGE FORMS” (priority 2013, published 2016).

Experiments:
central nervous system = conditions: after absorption

## Cn1c(=O)c2c(ncn2C)n(C)c1=O [caffeine]
After consumption
  time to peak levels in the circulation of the bloodstream: fifteen and forty-five
Average person, after ingestion
  average half-life: three and one half
Central nervous system
  time to maximum effect of central nervous system stimulation: thirty and sixty
